Laboratory results taken from patent US7265107B2, “Rifamycin C-11 oxime cyclo derivatives effective against drug-resistant microbes” (Cumbre Pharmaceuticals Inc., priority 2004, dated 2007).
Values after ≈ are worked out from the molar mass of the structure shown.

Columns and labels:
Format in all cases: cell-based
[1] = system: Haemophilus influenzae ATCC10211; conditions: rifS, BHI Broth with NAD and hematin, 37° C., read-out: Antimicrobial activity (MIC)
[2] = system: Staphylococcus aureus EN1252a gvrA^S84L grlA^S80F; test: microbe, parasite or virus in culture; conditions: cipR, Cation-Adjusted Mueller-Hinton Broth, 37° C., read-out: Antimicrobial activity (MIC)
Description: Representative compounds were assayed for antimicrobial activity as follows: Minimum Inhibitory Concentrations (“MICs”) were determined by the microbroth dilution method as per NCCLS guidelines (National Committee for Clinical Laboratory Standards. 2000. Methods for dilution antimicrobial susceptibility tests for bacteria that grow aerobically, 5th ed. M7-A5. National Committee for Clinical Laboratory Standards, Wayne, Pa.), except that all growth incubations were conducted at 37° C. Bacterial cultures were tested in the following bacteriological media: S. aureus, S. epidermidis, and E. coli in Cation-Adjusted Mueller-Hinton Broth, S. pneumoniae in THY Broth supplemented with 1 mg/mL catalase under 5% CO2 atmosphere, S. pyogenes in THY Broth, E. faecalis in BHI Broth, H. influenzae in BHI Broth supplemented with 0.75 μL of 1 mg/mL NAD and 150 μL of 1 mg/ml hematin per 5 mL, and M. smegmatis in Middlebrook Broth plus ADC Enrichment.
S. aureus EN1252a gyrA^S84L grlA^S80F is a quinolone-resistant strain due to double mutations to the genes confer DNA gyrase and topoisomerase IV.

[3] = system: Streptococcus pneumoniae ATCC6303; conditions: rifS, THY Broth with 1 mg/mL catalase, 5% CO2, 37° C., read-out: Antimicrobial activity (MIC)
[4] = system: Enterococcus faecalis ATCC29212; conditions: rifS, BHI Broth, 37° C., read-out: Antimicrobial activity (MIC)

Row | Structure (SMILES) | MIC [1] [µg/mL] | MIC [2] [µg/mL] | MIC [3] [ng/mL] | MIC [4] [µg/mL]
1 | CO[C@H]1/C=C/O[C@@]2(C)Oc3c(C)c(O)c4c(c3/C2=N/O)C2=NC3(CCN(CC(C)C)CC3)NC2=C(NC(=O)/C(C)=C\C=C\[C@H](C)[C@H](O)[C@@H](C)[C@@H](O)[C@@H](C)[C@H](OC(C)=O)[C@@H]1C)C4=O [Example 4, 11-Deoxy-11-hydroxyimino-1′,4-didehydro-1-deoxy-1,4-dihydro-5′-(2-methylpropyl)-1-oxo-rifamycin XIV] | 0.125 to 8 (≈ 145 to 9280 nM) | 0.0005 to 0.125 (≈ 0.58 to 145 nM) | 0.06 to 31 (≈ 0.0696 to 36 nM) | 0.5 to 31.2 (≈ 580 to 36300 nM)
2 | CO[C@H]1/C=C/O[C@@]2(C)Oc3c(C)c(O)c4c(=O)c(c5oc6cc(N7CCN(CC(C)C)CC7)cc(O)c6nc-5c4c3/C2=N/O)NC(=O)/C(C)=C\C=C\[C@H](C)[C@H](O)[C@@H](C)[C@@H](O)[C@@H](C)[C@H](OC(C)=O)[C@@H]1C [Example 5, 11-Deoxy-11-hydroxyimino-1′,4-didehydro-1-deoxy-1,4-dihydro-3′-hydroxy-5′-[4-(2-methylpropyl)-1-piperazinyl]-1-oxo-rifamycin VIII] | 0.125 to 8 (≈ 131 to 8370 nM) | 0.0005 to 0.125 (≈ 0.523 to 131 nM) | 0.06 to 31 (≈ 0.0628 to 32.4 nM) | 0.5 to 31.2 (≈ 523 to 32700 nM)
3 | CO[C@H]1/C=C/O[C@@]2(C)Oc3c(C)c(O)c4c(=O)c(c5oc6cc(N7CCOCC7)cc(O)c6nc-5c4c3/C2=N/O)NC(=O)/C(C)=C\C=C\[C@H](C)[C@H](O)[C@@H](C)[C@@H](O)[C@@H](C)[C@H](OC(C)=O)[C@@H]1C [Example 6, 11-Deoxy-11-hydroxyimino-1′,4-didehydro-1-deoxy-1,4-dihydro-3′-hydroxy-5′-(morpholin-4-yl)-1-oxo-rifamycin VIII] | 0.125 to 8 (≈ 139 to 8880 nM) | 0.0005 to 0.125 (≈ 0.555 to 139 nM) | 0.06 to 31 (≈ 0.0666 to 34.4 nM) | 0.5 to 31.2 (≈ 555 to 34700 nM)
4 | CO[C@H]1/C=C/O[C@@]2(C)Oc3c(C)c(O)c4c(=O)c(c5oc6cc(N7CCN(C)CC7)cc(O)c6nc-5c4c3/C2=N/O)NC(=O)/C(C)=C\C=C\[C@H](C)[C@H](O)[C@@H](C)[C@@H](O)[C@@H](C)[C@H](OC(C)=O)[C@@H]1C [Example 7, 11-Deoxy-11-hydroxyimino-1′,4-didehydro-1-deoxy-1,4-dihydro-3′-hydroxy-5′-(4-methyl-i-piperazinyl)-1-oxo-rifamycin VIII] | 0.125 to 8 (≈ 137 to 8750 nM) | 0.0005 to 0.125 (≈ 0.547 to 137 nM) | 0.06 to 31 (≈ 0.0656 to 33.9 nM) | 0.5 to 31.2 (≈ 547 to 34200 nM)
5 | CCN1CCN(c2cc(O)c3nc4c5c6c7c(C)c(O)c5c(=O)c(c-4oc3c2)NC(=O)/C(C)=C\C=C\[C@H](C)[C@H](O)[C@@H](C)[C@@H](O)[C@@H](C)[C@H](OC(C)=O)[C@H](C)[C@@H](OC)/C=C/O[C@@](C)(O7)/C6=N\O)CC1 [Example 8, 11-Deoxy-11-hydroxyimino-1′,4-didehydro-1-deoxy-1,4-dihydro-3′-hydroxy-5′-(4-ethyl-1-piperazinyl)-1-oxo-rifamycin VIII] | 0.125 to 8 (≈ 135 to 8620 nM) | 0.0005 to 0.125 (≈ 0.539 to 135 nM) | 0.06 to 31 (≈ 0.0647 to 33.4 nM) | 0.5 to 31.2 (≈ 539 to 33700 nM)
6 | CO[C@H]1/C=C/O[C@@]2(C)Oc3c(C)c(O)c4c(=O)c(c5oc6cc(N7CCN(C(C)C)CC7)cc(O)c6nc-5c4c3/C2=N/O)NC(=O)/C(C)=C\C=C\[C@H](C)[C@H](O)[C@@H](C)[C@@H](O)[C@@H](C)[C@H](OC(C)=O)[C@@H]1C [Example 9, 11-Deoxy-11-hydroxyimino-1′,4-didehydro-1-deoxy-1,4-dihydro-3′-hydroxy-5′-(4-isopropyl-1-piperazinyl)-1-oxo-rifamycin VIII] | 0.125 to 8 (≈ 133 to 8490 nM) | 0.0005 to 0.125 (≈ 0.531 to 133 nM) | 0.06 to 31 (≈ 0.0637 to 32.9 nM) | 0.5 to 31.2 (≈ 531 to 33200 nM)
7 | CCCCN1CCN(c2cc(O)c3nc4c5c6c7c(C)c(O)c5c(=O)c(c-4oc3c2)NC(=O)/C(C)=C\C=C\[C@H](C)[C@H](O)[C@@H](C)[C@@H](O)[C@@H](C)[C@H](OC(C)=O)[C@H](C)[C@@H](OC)/C=C/O[C@@](C)(O7)/C6=N\O)CC1 [Example 10, 11-Deoxy-11-hydroxyimino-1′,4-didehydro-1-deoxy-1,4-dihydro-3′-hydroxy-5′-(4-butyl-1-piperazinyl)-1-oxo-rifamycin VIII] | 0.125 to 8 (≈ 131 to 8370 nM) | 0.0005 to 0.125 (≈ 0.523 to 131 nM) | 0.06 to 31 (≈ 0.0628 to 32.4 nM) | 0.5 to 31.2 (≈ 523 to 32700 nM)
8 | CO[C@H]1/C=C/O[C@@]2(C)Oc3c(C)c(O)c4c(=O)c(c5oc6cc(N7CCN(CC8CCCCC8)CC7)cc(O)c6nc-5c4c3/C2=N/O)NC(=O)/C(C)=C\C=C\[C@H](C)[C@H](O)[C@@H](C)[C@@H](O)[C@@H](C)[C@H](OC(C)=O)[C@@H]1C [Example 11, 11-Deoxy-11-hydroxyimino-1′,4-didehydro-1-deoxy-1,4-dihydro-3′-hydroxy-5′-(4-cyclohexylmethyl-1-piperazinyl)-1-oxo-rifamycin VIII] | 0.125 to 8 (≈ 125 to 8030 nM) | 0.0005 to 0.125 (≈ 0.502 to 125 nM) | 0.06 to 31 (≈ 0.0602 to 31.1 nM) | 0.5 to 31.2 (≈ 502 to 31400 nM)
9 | CO[C@H]1/C=C/O[C@@]2(C)Oc3c(C)c(O)c4c(=O)c(c5oc6cc(N7CCN(CC8CCN(C)CC8)CC7)cc(O)c6nc-5c4c3/C2=N/O)NC(=O)/C(C)=C\C=C\[C@H](C)[C@H](O)[C@@H](C)[C@@H](O)[C@@H](C)[C@H](OC(C)=O)[C@@H]1C [Example 12, 11-Deoxy-11-hydroxyimino-1′,4-didehydro-1-deoxy-1,4-dihydro-3′-hydroxy-5 V-[4-(1-Methyl-piperidin-4-ylmethyl)-1-piperazinyl]-1-oxo-rifamycin VII] | 0.125 to 8 (≈ 124 to 7910 nM) | 0.0005 to 0.125 (≈ 0.494 to 124 nM) | 0.06 to 31 (≈ 0.0593 to 30.7 nM) | 0.5 to 31.2 (≈ 494 to 30900 nM)
10 | CO[C@H]1/C=C/O[C@@]2(C)Oc3c(C)c(O)c4c(=O)c(c5oc6cc(N7CCC(N8CCCCC8)CC7)cc(O)c6nc-5c4c3/C2=N/O)NC(=O)/C(C)=C\C=C\[C@H](C)[C@H](O)[C@@H](C)[C@@H](O)[C@@H](C)[C@H](OC(C)=O)[C@@H]1C [Example 13, 11-Deoxy-11-hydroxyimino-1′,4-didehydro-1-deoxy-1,4-dihydro-3′-hydroxy-5′-[(1,4′)-bipiperidinyl-1′-yl]-1-oxo-rifamycin VIII] | 0.125 to 8 (≈ 127 to 8150 nM) | 0.0005 to 0.125 (≈ 0.509 to 127 nM) | 0.06 to 31 (≈ 0.0611 to 31.6 nM) | 0.5 to 31.2 (≈ 509 to 31800 nM)
11 | CO[C@H]1/C=C/O[C@@]2(C)Oc3c(C)c(O)c4c(=O)c(c5oc6cc(N7CC(C)NC(C)C7)cc(O)c6nc-5c4c3/C2=N/O)NC(=O)/C(C)=C\C=C\[C@H](C)[C@H](O)[C@@H](C)[C@@H](O)[C@@H](C)[C@H](OC(C)=O)[C@@H]1C (stereo partly shown) [Example 14, 11-Deoxy-11-hydroxyimino-1′,4-didehydro-1-deoxy-1,4-dihydro-3′-hydroxy-5′-(3,5-dimethyl-1-piperazinyl)-1-oxo-rifamycin VIII] | 0.125 to 8 (≈ 135 to 8620 nM) | 0.0005 to 0.125 (≈ 0.539 to 135 nM) | 0.06 to 31 (≈ 0.0647 to 33.4 nM) | 0.5 to 31.2 (≈ 539 to 33700 nM)
12 | CO[C@H]1/C=C/O[C@@]2(C)Oc3c(C)c(O)c4c(=O)c(c5oc6cc(N7CC[C@@H](N)C7)cc(O)c6nc-5c4c3/C2=N/O)NC(=O)/C(C)=C\C=C\[C@H](C)[C@H](O)[C@@H](C)[C@@H](O)[C@@H](C)[C@H](OC(C)=O)[C@@H]1C [Example 15, 11-Deoxy-11-hydroxyimino-1′,4-didehydro-1-deoxy-1,4-dihydro-3′-hydroxy-5′-(3-amino-pyrrolidin-1-yl)-1-oxo-rifamycin VIII] | 0.125 to 8 (≈ 139 to 8890 nM) | 0.0005 to 0.125 (≈ 0.556 to 139 nM) | 0.06 to 31 (≈ 0.0667 to 34.4 nM) | 0.5 to 31.2 (≈ 556 to 34700 nM)
13 | CO[C@H]1/C=C/O[C@@]2(C)Oc3c(C)c(O)c4c(=O)c(c5oc6cc(N7CCCC7)cc(O)c6nc-5c4c3/C2=N/O)NC(=O)/C(C)=C\C=C\[C@H](C)[C@H](O)[C@@H](C)[C@@H](O)[C@@H](C)[C@H](OC(C)=O)[C@@H]1C [Example 16, 11-Deoxy-11-hydroxyimino-1′,4-didehydro-1-deoxy-1,4-dihydro-3′-hydroxy-5′-(pyrrolidin-1-yl)-1-oxo-rifamycin VIII] | 0.125 to 8 (≈ 141 to 9040 nM) | 0.0005 to 0.125 (≈ 0.565 to 141 nM) | 0.06 to 31 (≈ 0.0678 to 35 nM) | 0.5 to 31.2 (≈ 565 to 35300 nM)
